Test results from patent US20110110886A1, “SMALL MOLECULE INHIBITORS OF AUTOTAXIN AND METHODS OF USE” (Yale University, priority 2008, published 2011).
pEC50, pKi: −log10 of the molar value. “And” between values parts separate entries of the source, which are not always exact repeats. Equal entries are not always repeated. Where two headings read alike, the source gives them in different places. One block for each molecule: values may come before it.

Legend:
[1] = biological target: T1, ATX (recombinant full-length human ATX), PDE activity (Homo sapiens, UniProt Q13822); experiment: Steady-state ATX phosphodiesterase (PDE) activity with pNP-TMP, absorbance 405 nm; format: biochemical; conditions: for pKi: 25° C., read-out: KI (dissociation equilibrium constant for inhibitor binding), ATX PDE activity
T1 construct: consistent with a mature, glycosylated form of the enzyme; TEV cleavage site (C); 9-His (C); 6-His (C); made in house; host or cells: High Five insect cells (baculovirus, p-DEST-8)
Text: Protein expression and purification: The full length human NPP2 gene (NCBI accession #BC034961) followed by a C-terminal TEV cleavage site and a 9-His and 6-His purification tag was cloned and transferred into a p-DEST-8 baculovirus shuttle vector (Invitrogen), and bacmid DNA was generated by standard methods. The DNA sequence and correct transposition of the genes was verified by PCR, and recombinant full-length human ATX was expressed in High Five insect cells using standard methods. Three days post infection, the supernatant was adjusted to a final concentration of 50 mM Tris pH 8.0, 5 mM CaCl2, and 1 mM NiSO4 and stirred for 10 min. at room temperature. The resulting precipitant was removed by centrifugation (4,420×g for 30 minutes) and filtration ([…]), and the supernatant was concentrated using a Pall concentration system to approximately 250 mL. The cell media was passed over a nickel affinity column (5 mL, Fastflow resin), equilibrated in binding buffer (20 mM Tris pH 8.0, 300 mM NaCl, 20 mM imidazole, and 20% ethylene glycol) at 4° C., washed with 10 column volumes of binding buffer, and then eluted with binding buffer supplemented with 300 mM imidazole. Purified ATX was concentrated to approximately 10 mg mL^−1, and dialyzed into the appropriate assay buffer.
Steady-state enzyme assays: Phosphodiesterase activity of ATX (75-100 nM) was measured by absorbance (λ=405 nm) on a SpectraMax 250 plate reader at 25° C. with the substrate pNP-TMP [36]. Reactions were run in assay buffer containing 10% DMSO (v/v) and 1 mg mL^−1 BSA (hexachlorophene, merbromin, and bithionol) or without BSA (NSC 48300, 2,2′-Methylenebis(4-chlorophenol), eosin Y, and RJC 03297) in a total volume of […]. The uncatalyzed reaction rate was ≦10^−7 s^−1 (data not shown).
The steady-state rates (v) of product formation were obtained by fitting the time courses of absorbance or fluorescence change to linear functions. Absorbance units were converted to p-nitrophenylate concentration using ε405 of 18.5 mM^−1 cm^−1 [39] and a measured path length of 0.494 cm. FS-3 hydrolysis product formation was quantitated in arbitrary fluorescence units.
(§1) The Michaelis constants (KM) and the catalytic turnover rate constants (kcat) were obtained by fitting the [substrate]-dependence of v to a rectangular hyperbola in the form of the Briggs-Haldane equation: […]
(§2) in which [S] is [pNP-TMP] or [FS-3]. Inhibitors were treated as reversible inhibitors and analyzed according to the general steady-state linear enzyme inhibitor scheme:
(§3) in which E is ATX, S is pNP-TMP or FS-3 substrate, P are the hydrolysis products, and K1 is the dissociation equilibrium constant for inhibitor binding. The values of α and K1 were obtained by fitting the steady-state rates of product formation (v) to the general inhibition equation: […]
(§4) in which [I] is the inhibitor concentration, kcat is the maximum catalytic turnover rate, and KS is the Michaelis constant of the substrate obtained in the absence of inhibitor.
(§5) The type of inhibition (competitive, noncompetitive, or uncompetitive) depends on the value of α.
(§6) The type of inhibition was assigned if the difference between the r^2 values of the fits to the general inhibition equation (Eq 2) and the specific inhibition (i.e. competitive, noncompetitive or uncompetitive) equations was less than 0.01.

[2] = biological target: T2, ATX (recombinant full-length human ATX), lysoPLD activity (Homo sapiens, UniProt Q13822); experiment: Steady-state ATX lysoPLD activity with fluorescent LPC analogue FS-3; format: biochemical; conditions: for inhibition of ATX lysoPLD activity by GenPlus screen inhibitor analogs / type of inhibition of ATX lysoPLD activity: substrate FS-3; for pKi: substrate FS-3, 37° C.
T2 construct: consistent with a mature, glycosylated form of the enzyme; TEV cleavage site (C); 9-His (C); 6-His (C); made in house; host or cells: High Five insect cells (baculovirus, p-DEST-8)
Experimental: Protein expression and purification: The full length human NPP2 gene (NCBI accession #BC034961) followed by a C-terminal TEV cleavage site and a 9-His and 6-His purification tag was cloned and transferred into a p-DEST-8 baculovirus shuttle vector (Invitrogen), and bacmid DNA was generated by standard methods. […] Three days post infection, the supernatant was adjusted to a final concentration of 50 mM Tris pH 8.0, 5 mM CaCl2, and 1 mM NiSO4 and stirred for 10 min. at room temperature. […] Purified ATX was concentrated to approximately 10 mg mL^−1, and dialyzed into the appropriate assay buffer.
Fluorescence was measured (λex=485 nm, λem=520 nm) on a SpectraMax Gemini XPS at 37° C. under buffer conditions similar to the PDE assays but lacking BSA. […] The spontaneous reaction rates were subtracted from the enzyme catalyzed rates.
The steady-state rates (v) of product formation were obtained by fitting the time courses of absorbance or fluorescence change to linear functions. […] FS-3 hydrolysis product formation was quantitated in arbitrary fluorescence units.
as §1, §2, §3, §4, §5, §6

[3] = test system: human melanoma cell line (A2058); experiment: Boyden chamber cell migration assay, melanoma cells; format: cell-based; conditions: for inhibition of ATX-induced stimulation of melanoma cell motility: A2058, 50 nM ATX, 4 hours
Experimental: (§7) All cell media was supplemented with 10% (v/v) fetal calf serum (FCS) (Gibco) and 1% (v/v) L-glutamine (Gibco) and grown at 37° C. in a humidified atmosphere containing 5% CO2.
The assay chambers are divided by a gelatin-coated membrane with […] pores (NeuroProbe). […] The chambers were then incubated at 37° C. for 4 hours, after which the filters were removed, fixed in 100% methanol, stained with a DiffQuick solution, and mounted onto glass slides. Non-migrating cells were removed from the membrane by scraping the top surface. The cells were quantitated by counting the cell number per high powered field in the various wells. Treatments were compared using a chi squared test.

[4] = test system: adenocarcinoma cell motility; conditions: reported in ref. [40]; read-out: EC50, inhibition of adenocarcinoma cell motility; cited from earlier work
A2058 melanoma cells = experiment: Matrigel cell invasion assay, melanoma cells; format: cell-based, human; conditions: for inhibition of ATX-induced stimulation of melanoma cell invasion: A2058, 50 nM ATX
Experimental: as §7
Cell invasion assays: Matrigel matrix (1 mg/ml, Becton Dickenson) was added to […] gelatin-coated membranes placed in cell culture inserts (BD Falcon) and allowed to set for 24 hours at room temperature. The inserts were placed into companion 24 well plates (BD Falcon), and chemo-attractants (ATX ±inhibitors) and/or controls were added to the bottom of the wells. Cells (1×10^6) were added to the inserts and incubated for 3 hours at 37° C. Following incubation, the inserts were removed, fixed in 100% methanol, stained with DiffQuick solution, and mounted on glass slides. Non-invading cells were removed by scraping away the matrigel, and migrating cells were quantitated by counting cell number per high-powered field.

ATX lyso-PLD activity = biological target: T3, ATX lyso-PLD activity (Homo sapiens, UniProt Q13822); experiment: Time course assay of ATX lyso-PLD activity (FS-3 fluorescent product) with or without 10 μM compound over 30 minutes; format: biochemical; conditions: 10 μM inhibitor, 30 minute interval, compared with NSC 48300
T3 construct: consistent with a mature, glycosylated form of the enzyme; TEV cleavage site (C); 9-His (C); 6-His (C); made in house; host or cells: High Five insect cells (baculovirus, p-DEST-8)
Experimental: C. Structure of hexachlorophene, merbromin. Bithionol and their analogs -2,2′-Methylenebis(4-chlorophenol), Eosin Y and RJC 03297, respectively. D. Structure of NSC 48300 and its analogs. […] The assay conditions are 300 nM ATX in the presence or absence of 10 μM compound over 30 minutes.
Inhibitor screen: High throughput screens were performed against two libraries: the GenPlus library of 960 compounds (NINDS Custom Collection, MicroSource Discovery systems) and the NCI Diversity Set (1990 compounds, see http://dtp.nci.nih.gov/branches/dscb/repo_open.html). The screens were performed at the Yale Center for Chemical Genomics utilizing a Tecan Aquarius robot in combination with an Aquarius liquid handler and a Freedom EVO Workstation. A V&P Scientific 384 pin tool transferred small molecules (10 mM stock) from library plates into the optically clear, 384 well assay plates, and an Aquarius liquid handling robot transferred protein into the individual wells. The assays were performed in a total volume of 50 μL in assay buffer (50 mM Tris, 140 mM NaCl, 1 mM MgCl2, and 5 mM CaCl2, pH 8.0). Absorbance of p-nitrophenylate, the product of ATX's PDE activity with pNP-TMP (discussed below) was measured at 405 nm over a period of 12 hours. To monitor lysophospholipase-D activity, the fluorescence of FS-3 (625 nM or 4 μM) was monitored (λex=480 nm, λem=535 nm) in assay buffer over a period of 30 minutes in the presence of 300 nM ATX and 10 μM compound. The assay was evaluated using a statistical Z′ analysis, a quantitative measure to determine assay robustness for single point analysis on a high throughput screening platform. The Z′ analysis was performed from 32 maximum control values (c+) and 32 minimum controls (c−) on each plate. Assays consistently performed with Z′ factors of 0.75-0.85, higher than the minimum 0.5 considered robust.
Inhibition of ATX lyso-PLD activity by several NSC48300 analogs was qualitatively compared in a time course assay by measuring the production of fluorescent product in the presence or absence of 10 µM inhibitor over a 30 minute interval.

[5] = ATX-dependent hydrolysis, fit to Eq. 1

Molecule: Oc1ccc(Cl)cc1Cc1cc(Cl)ccc1O [2,2′-Methylenebis(4-chlorophenol)]
- type of inhibition of ATX PDE activity ([1]; substrate pNP-TMP): noncompetitively
- pKi ([1]; substrate pNP-TMP): 3.98
- inhibition of ATX lysoPLD activity by GenPlus screen inhibitor analogs [2]: only Eosin Y (an analogue of merbromin) inhibits ATX lysoPLD activity

Molecule: Cc1ccc2c(c1)C(=O)C1(O)CCN(c3ccccc3)C1=N2 (stereo not shown) [Blebbistatin]
- pEC50 ([3]; A2058, 75 nM LPA, read-out: EC50, inhibition of cell motility with addition of LPA): 4.57
- pEC50 ([3]; A2058, in the presence of 50 nM ATX, read-out: EC50, inhibition of ATX-induced cell motility): 4.27
- pEC50 [4]: ~4.30

- type of inhibition of ATX PDE activity ([1]; substrate pNP-TMP): competitively
- pKi ([1]; substrate pNP-TMP): 5.02
- inhibition of ATX lysoPLD activity by GenPlus screen inhibitor analogs [2]: inhibits ATX lysoPLD activity
- type of inhibition of ATX lysoPLD activity [2]: noncompetitive
- pKi [2]: 3.94
Molecule: O=C1OC2(c3ccccc31)c1cc(Br)c(O)c(Br)c1Oc1c2cc(Br)c(O)c1Br [Eosin Y]

Molecule: Oc1c(Cl)cc(Cl)c(Cl)c1Cc1c(O)c(Cl)cc(Cl)c1Cl [Hexachlorophene]
- inhibition of ATX-induced stimulation of melanoma cell invasion (A2058 melanoma cells): inhibited in a dose-dependent manner
- type of inhibition of ATX PDE activity ([1]; substrate pNP-TMP): competitive inhibition
- α value from general steady-state inhibition equation (Eq. 2) ([1]; substrate pNP-TMP): > 45
- pKi ([1]; substrate pNP-TMP): 4.82
- inhibition of ATX-induced stimulation of melanoma cell motility [3]: inhibited in a dose-dependent manner
- type of inhibition of ATX lysoPLD activity [2]: competitive inhibitor
- pKi [2]: 4.17

Molecule: O=C([O-])c1ccccc1-c1c2cc(Br)c(=O)cc-2oc2[c]([Hg+])c([O-])c(Br)cc12.[Na+].[Na+].[OH-] [Merbromin]
- inhibition of ATX-induced stimulation of melanoma cell invasion (A2058 melanoma cells): inhibited in a dose-dependent manner
- type of inhibition of ATX PDE activity ([1]; substrate pNP-TMP): noncompetitive inhibition
- pKi ([1]; substrate pNP-TMP): 4.37
- inhibition of ATX-induced stimulation of melanoma cell motility [3]: inhibited in a dose-dependent manner

Molecule: O=[As](O)(O)c1ccc(-c2ccc([As](=O)(O)O)cc2)cc1 [NSC 13792]
- qualitative effect of structural change on inhibition of ATX lyso-PLD activity (ATX lyso-PLD activity): eliminates inhibition

Molecule: COC(=O)c1ccc(Cc2ccc(C(=O)OC)cc2)cc1 [NSC 86629]
- qualitative effect of structural change on inhibition of ATX lyso-PLD activity (ATX lyso-PLD activity): eliminates inhibition

Molecule: Cc1cn([C@H]2C[C@H](O)[C@@H](COP(=O)(O)Oc3ccc([N+](=O)[O-])cc3)O2)c(=O)[nH]c1=O [pNP-TMP, p-Nitrophenyl 5′-thymidine monophosphate]
- Km [1, 5]: 1400 µM
- kcat for pNP-TMP hydrolysis [1, 5]: 1.6 s^−1 and 1.6 (±0.1) s^−1

- Km [2, 5]: 4.5 µM
Molecule: Fluorescent Substrate-3 [FS-3]

Molecule: lysophosphatidic acid [LPA]
- increase in number of invading cells per hpf (A2058 melanoma cells; A2058, ATX (50 nM) or LPA (75 nM)): 3.5 fold
